Where two headings read alike, the source gives them in different places.
Legend:
Candida albicans = assay: microbe, parasite or virus in culture; assay type: cell-based; conditions: for zone of inhibition at 20 µM: Candida albicans, inhibition zone diameter, six-mm disks soaked with 20 μM of compound, read-out: C. albicans IZD (mm); for C. albicans A% (activity index): zone of test compound / zone of standard (clotrimazole) x 100
Protocol: (§1) The antimicrobial activities of the OSe compounds were evaluated against C. albicans yeast, as well as E. coli and S. bacteria, employing the agar well diffusion assay. Furthermore, the MICs (in µM) were determined by the microdilution method according to the reported protocol. More details are in the Supporting Information.
(§2) Compounds were evaluated for their antimicrobial activity against the Gram-negative bacteria Escherichia coli (E. coli) and the Gram-positive bacteria Staphylococcus aureus (S. aureus), as well as the Candida albicans (C. albicans) fungal strain, using the agar diffusion assay. Ampicillin and clotrimazole were used as standards. Indeed, the antimicrobial properties of the OSe compounds were also obtained from the activity index percentage (A%) according to Equation (2). (2) A%=Zone of inhibition by test compound diametre/Zone of inhibition by standard diametre×100 . […]
(§3) 1.1.1. The antimicrobial activity
The antimicrobial activities of the OSe compounds were evaluated against C. albicans yeast as well as E. coli gram-negative and S. aureus gram-positive bacteria employing the agar well diffusion assay. […]
compound by dissolving in DMSO. […]
Petri dishes, which in turn contain a nutrient media (agar 20 g, peptone 5 g, and beef extract 3 g) seeded with the dedicated strain. Incubation lasted for 24 h at 36
(§4) Furthermore, the MICs (in µM) were determined by the microdilution method according to the reported protocol. […]
(§5) Inhibition%= (Ablank-Asample)/(Ablank)*100. (1)

HepG2 cells = assay: cells; assay type: cell-based, human; conditions: for IC50: Homo sapiens; for HepG2 TI (IC50 WI-38 / IC50 HepG2): therapeutic index, ratio of WI-38 IC50 to HepG2 IC50
Protocol: (§6) Cells were obtained from the ATCC Company (VACSERA), Cairo, Egypt. MTT assay were performed according to the literature method. More details are in the Supporting Information.
(§7) Recently, OSe compounds gained much attention as possible drug candidates due to their various pharmacological properties. Our group has reported several OSe candidates with potential anticancer, antimicrobial, and antioxidant activities. Therefore, the anticancer attributes of the newly prepared OSe compounds were estimated using the MTT assay against MCF-7 and HepG2 and compared with their respective cytotoxicity in WI-38 primary cells. The anthracycline drug doxorubicin was used as the standard. The minimal inhibition concentration required to kill 50% of the cells (IC50) was calculated from dose-response curves presented in Table 1. Moreover, the therapeutic index (TI) was also calculated (according to Equation (1)), which is considered a measure of the selectivity and safety of the synthesized compounds. (1) TI=IC50 for the normal WI38 cells/IC50 for the cancer cells […]
(§8) 1.1. The biological assays
(§9) 1.1.1. The anticancer activity
The breast adenocarcinoma (MCF-7), Hepatocellular carcinoma (HEPG-2), and nor-mal fibroblast (WI-38) cells were obtained from ATCC via Holding company for biological products and vaccines (VACSERA), Cairo, Egypt. The reagents RPMI-1640 medium, MTT, DMSO, and fetal bovine serum was obtained from Sigma Aldrich. Dulbecco’s modified Eagle’s medium was used as the culture medium for the cells, and the cytotoxicity was evaluated using the reported MTT assay. Doxorubicin was used as the positive reference, and the IC50 values were obtained from the corresponding dose-response curve.
This colorimetric assay is based on converting the yellow tetrazolium bromide (MTT) to a purple formazan derivative by mitochondrial succinate dehydrogenase in viable cells.
(§10) Cell lines were cultured in RPMI-1640 medium with 10% fetal bovine serum. Antibiotics added were 100 units/ml penicillin and 100µg/ml streptomycin at 37 C in a 5% Co2 incu-bator. The cell lines were seeded in a 96-well plate at a density of 1.0x10^4 cells/well. at 37 C for 48 h under 5% Co2. After incubation, the cells were treated with different concentra-tions of compounds and incubated for 24 h. After 24 h of drug treatment, 20 µl of MTT solution at 5mg/ml was added and incubated for 4 h. Finally, dimethyl sulfoxide (DMSO) in the volume of 100 µl is added to each well to dissolve the purple formazan formed. The colorimetric assay is measured and recorded at an absorbance of 570 nm using a plate reader (EXL 800, USA). The percentage of the relative cell viability was calculated as (A570 of treated samples/A570 of the untreated sample) X 100. […]
as §5

Escherichia coli = assay: Agar diffusion assay, E. coli; assay type: cell-based; parameters: E. coli A% (activity index): concentration or dose not given beside the values; conditions: for zone of inhibition at 20 µM: Escherichia coli, read-out: E. coli IZD (mm); for E. coli A% (activity index): zone of test compound / zone of standard (ampicillin) x 100
WI-38 cells = assay: cells; assay type: cell-based, human; conditions: Homo sapiens
Protocol: as §6
as §7, with “Our group has reported several OSe candidates with potential anticancer, antimicrobial, and antioxidant activities.” left out, “The minimal inhibition concentration required to kill 50% of the cells (IC50) was calculated from dose-response curves presented in Table 1.” left out
as §8, §9
(§11) The breast adenocarcinoma (MCF-7), Hepatocellular carcinoma (HEPG-2), and nor-mal fibroblast (WI-38) cells were obtained from ATCC via Holding company for biological products and vaccines (VACSERA), Cairo, Egypt.
(§12) DMSO, and fetal bovine serum was obtained from Sigma Aldrich. Dulbecco’s modified Eagle’s medium was used as the culture medium for the cells, and the cytotoxicity was evaluated using the reported MTT assay. Doxorubicin was used as the positive reference, and the IC50 values were obtained from the corresponding dose-response curve.
(§13) This colorimetric assay is based on converting the yellow tetrazolium bromide (MTT) to a purple formazan derivative by mitochondrial succinate dehydrogenase in viable cells. […]
as §10, with “added” for “Cell lines were cultured in RPMI-1640 medium with 10% fetal bovine serum. Antibiotics added”, “plate” for “plate reader (EXL 800, USA). The percentage of the relative cell viability was calculated as (A570 of treated samples/A570 of the untreated sample) X 100.”
(§14) The percentage of the relative cell viability was calculated as (A570 of treated samples/A570 of the untreated sample) X 100. […]

MCF-7 cells = assay: cells; assay type: cell-based, human; conditions: for IC50: Homo sapiens; for MCF7 TI (IC50 WI-38 / IC50 MCF-7): therapeutic index, ratio of WI-38 IC50 to MCF-7 IC50
Protocol: as §6
as §7, with “Our group has reported several OSe candidates with potential anticancer, antimicrobial, and antioxidant activities.” left out, “The minimal inhibition concentration required to kill 50% of the cells (IC50) was calculated from dose-response curves presented in Table 1.” left out
as §8, §9, §11, §12, §13
as §10, with “added” for “Cell lines were cultured in RPMI-1640 medium with 10% fetal bovine serum. Antibiotics added”, “plate” for “plate reader (EXL 800, USA). The percentage of the relative cell viability was calculated as (A570 of treated samples/A570 of the untreated sample) X 100.”
as §14

Staphylococcus aureus = assay: Agar diffusion assay, S. aureus; assay type: cell-based; parameters: S. aureus A% (activity index): concentration or dose not given beside the values; conditions: for zone of inhibition at 20 µM: Staphylococcus aureus, read-out: S. aureus IZD (mm); for S. aureus A% (activity index): zone of test compound / zone of standard (ampicillin) x 100
Protocol: as §1, §2, §3
The antimicrobial activities of the OSe compounds were evaluated against C. albicans yeast as well as E. coli gram-negative and S. aureus gram-positive bacteria employing the agar well diffusion assay. Briefly, a concentration of 1 mM was prepared for each compound by dissolving in DMSO. Paper discs of standard size […] were steri-lized in an autoclave and soaked in 20 µL of the test compounds, and placed in the Petri dishes, which in turn contain a nutrient media (agar 20 g, peptone 5 g, and beef extract 3 g) seeded with the dedicated strain. Incubation lasted for 24 h at 36
as §4, §5

[1] = MTT, 24 h incubation, HepG2 cells, read-out: HepG2 IC50
[2] = inhibition zone diameter, six-mm disks soaked with 20 μM of compound
[3] = MTT, 24 h incubation, normal WI-38 cells, read-out: WI38 IC50
[4] = MCF7, MTT, 24 h incubation, MCF-7 cells, read-out: MCF7 IC50

Row | Compound | zone of inhibition at 20 µM (Candida albicans) | C. albicans A% (activity index) (Candida albicans) | melting point | IC50 (HepG2 cells; [1]) | HepG2 TI (IC50 WI-38 / IC50 HepG2) (HepG2 cells) | zone of inhibition at 20 µM (Escherichia coli; [2]) | E. coli A% (activity index) (Escherichia coli) | IC50 (WI-38 cells; [3]) | IC50 (MCF-7 cells; [4]) | MCF7 TI (IC50 WI-38 / IC50 MCF-7) (MCF-7 cells) | zone of inhibition at 20 µM (Staphylococcus aureus; [2]) | S. aureus A% (activity index) (Staphylococcus aureus) | IC50 (HepG2 cells; HepG2, 24 h, read-out: HepG2 IC50 (µM)) | zone of inhibition at 20 µM (Escherichia coli) | IC50 (WI-38 cells; WI-38, 24 h, read-out: WI38 IC50 (µM)) | IC50 (MCF-7 cells; MCF7, 24 h, read-out: MCF7 IC50 (µM)) | zone of inhibition at 20 µM (Staphylococcus aureus)
1 | CN(C)C=Nc1ccc([Se]CC(=O)Nc2ccccc2)cc1 [Compound 20, 2-((4-(((dimethylamino)methylene)amino)phenyl)selanyl)-N-phenylacetamide] | 11 mm | 46% | 118 to 120 °C | 40.3 ± 2.5 µM | 2.5 | 8 mm | 35% | > 100 µM | 36.8 ± 2.4 µM | 2.7 | 9 mm | 43% | – | – | – | – | –
2 | O=CNc1ccc([Se]CC(=O)Nc2ccccc2)cc1 [Compound 17, 2-((4-formamidophenyl)selanyl)-N-phenylacetamide] | – | – | 143 to 144 °C | > 100 µM | – | – | – | > 100 µM | > 100 µM | – | – | – | – | – | – | – | –
3 | O=C(CCl)Nc1ccc([Se]CC(=O)Nc2ccccc2)cc1 [Compound 19] | – | – | 184.8 °C | > 100 µM | – | – | – | > 100 µM | > 100 µM | – | – | – | – | – | – | – | –
4 | O=C(C[Se]c1ccc(N2C(=O)C=CC2=O)cc1)Nc1ccccc1 [Compound 13, 2-((4-(2,5-dioxo-2,5-dihydro-1H-pyrrol-1-yl)phenyl)selanyl)-N-phenylacetamide] | – | – | 169 to 170 °C | > 100 µM | – | 5 mm | 22% | > 100 µM | > 100 µM | – | 6 mm | 29% | – | – | – | – | –
5 | O=C(C[Se]c1ccc(N=Cc2ccccc2O)cc1)Nc1ccccc1 | – | – | 150.3 °C | – | – | – | – | – | – | – | – | – | – | – | – | – | –
6 | O=C(C[Se]c1ccc(N2C(=O)c3ccccc3C2=O)cc1)Nc1ccccc1 [Compound 12, 2-((4-(1,3-dioxoisoindolin-2-yl)phenyl)selanyl)-N-phenylacetamide] | 7 mm | 29% | 261 to 262 °C | > 100 µM | – | 6 mm | 26% | > 100 µM | > 100 µM | – | 8 mm | 38% | – | – | – | – | –
7 | CC1=NN(c2ccccc2)C(=O)C1=NNc1ccc([Se]CC(=O)Nc2ccccc2)cc1 [Compound 8, 2-((4-(2-(3-methyl-5-oxo-1-phenyl-1H-pyrazol-4(5H)-ylidene)hydrazinyl)phenyl)selanyl)-N-phenylacetamide] | – | – | 197 to 199 °C | > 100 µM | – | – | – | > 100 µM | > 100 µM | – | 4 mm | 19% | – | – | – | – | –
8 | O=C(O)C=CC(=O)Nc1ccc([Se]CC(=O)Nc2ccccc2)cc1 [Compound 10, 4-oxo-4-((4-((2-oxo-2-(phenylamino)ethyl)selanyl)phenyl)amino)but-2-enoic acid] | 8 mm | 33% | – | > 100 µM | – | 9 mm | 39% | 46 ± 2.9 µM | 34.8 ± 2.5 µM | 1.3 | 11 mm | 52% | – | – | – | – | –
9 | CC1(C)S[C@@H]2[C@H](NC(=O)[C@H](N)c3ccccc3)C(=O)N2[C@H]1C(=O)O [Ampicillin, ampicillin, reference compound] | – | – | – | – | – | 23 mm | 100% | – | – | – | 21 mm | 100% | – | – | – | – | –
10 | COc1cccc2c1C(=O)c1c(O)c3c(c(O)c1C2=O)C[C@@](O)(C(=O)CO)C[C@@H]3O[C@H]1C[C@H](N)[C@H](O)[C@H](C)O1 [Doxorubicin, doxorubicin, reference compound] | – | – | – | 4.5 ± 0.2 µM | 1.5 | – | – | – | – | 1.6 | – | – | – | – | – | – | –
11 | N#CC(C#N)=NNc1ccc([Se]CC(=O)Nc2ccccc2)cc1 [Compound 7] | – | – | 177 to 179 °C | – | – | – | 13% | – | – | – | – | 29% | > 100 µM | 3 mm | > 100 µM | > 100 µM | 6 mm

From PMC9312238, “Novel Organoselenium Redox Modulators with Potential Anticancer, Antimicrobial, and Antioxidant Activities” (Antioxidants, 2022)
